Results published in patent US6432434B1, “Treatment of and/or prophylaxis against brain and spinal cord injury” (The United States of America as represented by the …, priority 1999, dated 2002).
Like-named read-outs stand apart in the source and are kept apart here.

Legend:
[1] = test system: rats injected intrathecally with dynorphin A; test: Dynorphin A-induced paralysis in rats, neurological score; type: in vivo, rat; conditions: n = 9, 5 μmoles DHL in DMSO intrathecally
Description: Rats were injected with […] of dynorphin A in combination with DMSO (vehicle only) or dynorphin A (Dny) with 5 μmoles of dihydrolipoate in DMSO. The DMSO (control) and the DMSO with dihydrolipoate (DHL/DMSO) were administered as 2 hour pretreatment before administration of the dynorphin A and as cotreatment with dynorphin A. All rats were flaccidly paralyzed 10 minutes following dynorphin a injections. All injections were administered intrathecally.

[2] = man, cited from earlier work
[3] = test system: NMDA and malonic acid lesions of striatum; conditions: rats; cited from earlier work
[4] = test system: ischemia-reperfusion injury; conditions: gerbil; cited from earlier work
[5] = test system: ischemia-reperfusion injury; conditions: rat; cited from earlier work
[6] = 2 hrs, pretreatment and cotreatment with dynorphin A
[7] = 24 hrs, pretreatment and cotreatment with dynorphin A

| SMILES | Number of animals with neurological score 4 (normal) ([1]; 2 hrs, 2 hour pretreatment and cotreatment with 20 μmoles dynorphin A, 4 normal, 0 flaccid paralysis) | Number of animals with neurological score 0 (flaccid paralysis) [1, 6] | Number of animals with neurological score 1 [1, 6] | Number of animals with neurological score 2 [1, 6] | Number of animals with neurological score 3 [1, 6] | Number of animals with neurological score 1 [1, 7] | Number of animals with neurological score 3 [1, 7] | Number of animals with neurological score 4 (normal) [1, 7] | Clinical safety / tolerability [2] | Clinical safety / tolerability ([2]; listed as αLA) | Effect against NMDA lesions of striatum [3] | Effect against malonic acid lesions of striatum [3] | Neuroprotection against ischemia-reperfusion injury [4] | Neuroprotection against ischemia-reperfusion injury [5] |
| --- | --- | --- | --- | --- | --- | --- | --- | --- | --- | --- | --- | --- | --- | --- |
| O=C(O)CCCC[C@@H](S)CCS (racemic) [DHL, dihydrolipoic acid] | 2 | 1 | 1 | 2 | 3 | 2 | 3 | 4 |  |  |  |  |  |  |
| O=C(O)CCCCC1CCSS1 (stereo not drawn) [Alpha lipoic acid] |  |  |  |  |  |  |  |  | clinically safe | well tolerated | effective | effective | neuroprotective | neuroprotective |
